Reference: patent US7812039B2, “Drugs for chronic pains” (Nicox S.A., priority 2001, dated 2010)

Tests used:
Type in all cases: in vivo
[1] = system: Wistar adult rats; assay: Neuropathic pain model, ligature of the right sciatic nerve (Bennett), withdrawal latencies; conditions: 14 days after ligature, percentage of control response
Procedure: Wistar adult rats weighing about 200 grams were used, in the experimental model described by Bennett G J, Xie Y K, Pain 1988, 33(1): 87-107. The pain response (withdrawal latencies) is determined 14 days after the ligature of the right sciatic nerve. The results obtained are reported in Table 2 and have been expressed as a percentage ratio of the difference between the response from the intact paw and from the injured paw, to the response of the control animals, that have been injected with the carrier and undergone the nerve ligature. The groups were of 10 rats each.

[2] = system: female Sprague-Dawley rats; assay: Cold allodynia (ethyl chloride spray) in spinally-injured rats, acute administration
Source text: (§1) In 6 groups of female Sprague-Dawley rats weighting 200 g, photochemically-induced ischemic spinal cord injury was produced according to methods described by Xu et al. Pain, 1992, 48, 279-290. Spinally-injured rats developed a chronic pain syndrome, including marked mechanical and cold allodynia. The rats were injured 3-6 months before the beginning of the experiment.
(§2) Each group of rats was i.p. treated, respectively, with one of the following compounds using one of the above indicated doses: • NO-gabapentin at doses of 20 mg/Kg (55 μmole/Kg), or 60 mg/Kg (167.21 μmole/Kg), or 100 mg/kg (278.7 μmole/Kg), dissolved in saline, single dose, i. p.); • gabapentin at doses of 30 mg/Kg ([…]) or 100 mg/kg ([…]), dissolved in saline, single dose i. p.); • the control group received the vehicle; The response to cold was tested by spray-applying ethyl chloride on the shaved allodynic skin area at time 0 (i.p. injection) and then at 30′, 120′ and 240′. The response was evaluated according to the following score: • 0=no response; • 1=localized response (skin twitch and contraction), no vocalization; • 2=transient vocalization, moderate struggle; • 3=sustained vocalization and aggression.

[3] = system: female Sprague-Dawley rats; assay: Motor performance (combined testing system) in spinally-injured rats
Source text: as §1, §2
The effect of the compounds on motor activity was also evaluated using a combined testing system as described in Hao, J. X. and Xu, X. J., Pain, 1996, 66, 279-286.

[4] = system: Swiss male mice; assay: "Paw-licking" test (formalin injected in the paw); conditions: for Number "paw licking" %: 1 h before formalin, counted 15 min, percentage of control group
Procedure: Four groups of Swiss male mice (20-25 g, Charles River) each formed by 10 animals, received by intraperitoneal injection Gabapentin (90 mg/kg) or the compound of formula (XVI) (Example 3), called NO-Gabapentin at the doses of 50 mg/kg, in a saline solution. The control group received the same volume of saline solution. One hour after the administration of the compound solutions, formalin (10 μl) was injected in the paw. In the 15 minutes subsequent to formalin administration, for each animal, the number of times wherein it licked its paw was counted. The analysis was carried out “in blind”.

[5] = system: Wistar adult male rats; assay: Acute toxicity in the diabetic animal (streptozocin)
Procedure: In 50 Wistar adult male rats weighing 165-190 g, diabetes was induced by injection i.v. of a single dose of streptozocin (65 mg/kg in 1 ml/kg buffer citrate at pH 4.5).
After one week the animals were distributed in three groups of 10 rats each and treated per os for three days with daily doses of 100 mg/kg of gabapentin and NO-gabapentin. The controls were treated only with streptozocin.
Death rate was monitored for 7 days from the last treatment.

[6] = system: female Sprague-Dawley rats; assay: Mechanical allodynia (von Frey hairs, vocalization threshold) in spinally-injured rats, repeated administration; conditions: for vocalization threshold (g) to mechanical stimulation with von Frey hairs: 1 hour after administration
Procedure: In this experiment the effect of repeated administration of NO-gabapentin was assessed and compared with that of the precursor drug gabapentin in a rat model of neuropathic pain. In 4 groups of female Sprague-Dawley rats weighting 200 g photochemically-induced ischemic spinal cord injury was produced according to methods describe by Xu et al. Pain, 1992, 48, 279-290.
Spinally-injured rats developed a chronic pain syndrome, including marked mechanical and cold allodynia. The rats were injured 3-6 months before the beginning of the experiment. Each of the groups of rats were i.p. treated daily for 10 day, respectively, with 60 mg/kg (167.2 μmole/Kg) of NO-gabapentin and with 30 mg/Kg (175 μmole/Kg) of gabapentin. Controls (two groups) received only the vehicle. Each day the treatment of the animals was made at the same time. During the experiment vocalized thresholds to graded mechanical touch/pressure were tested with von Frey hairs.
During testing, rats were gently restrained in a standing position and the von Frey hair was pushed onto the skin until filament becomes bent. The frequency of stimulation was about 1/s and repeated 5-10 times. The intensity of stimulation (g) which induced consistent vocalization (>75% response rate) is considered as pain threshold. Behavioral testings were carried out before the daily for the control group and 1 hour after administration for the treated groups.

CN(C)CCCN1c2ccccc2CCc2ccc(Cl)cc21 [Clomipramine, clomipramine]
response % ([1]; clomipramine 10 mg/kg i.p.): 72%

NCC1(CC(=O)O)CCCCC1 [Gabapentin]
response to cold stimulation, score (0-3) ([2]; 175 μmole/kg i.p. single dose, time 0 min): 2
response to cold stimulation, score (0-3) ([2]; 175 μmole/kg i.p. single dose, time 30 min): 2
response to cold stimulation, score (0-3) ([2]; 175 μmole/kg i.p. single dose, time 120 min): 2
response to cold stimulation, score (0-3) ([2]; 175 μmole/kg i.p. single dose, time 240 min): 2
antiallodynic effect (cold), in words ([2]; 30 mg/Kg (175 μmole/Kg) i.p.): did not produce a significant antiallodynic effect
motor performance (score) ([3]; 175 μmole/kg i.p., time 0 min): 20
motor performance (score) ([3]; 175 μmole/kg i.p., time 30 min): 20
motor performance (score) ([3]; 175 μmole/kg i.p., time 120 min): 20
motor performance (score) ([3]; 175 μmole/kg i.p., time 240 min): 20
motor performance (score) ([3]; 584 μmole/kg i.p., time 0 min): 15
motor performance (score) ([3]; 584 μmole/kg i.p., time 30 min): 30
motor performance (score) ([3]; 584 μmole/kg i.p., time 120 min): 30
motor performance (score) ([3]; 584 μmole/kg i.p., time 240 min): 25
effect on motor activity, in words ([3]; 100 mg/kg (584 μmole/Kg) i.p.): induced motor impairment and sedation
Number "paw licking" % ([4]; 90 mg/kg i.p.): 80%
lethality % ([5]; 100 mg/kg per os daily for three days, diabetic rats, monitored 7 days from last treatment): 50%
vocalization threshold (g) to mechanical stimulation with von Frey hairs ([6]; 175 μmole/kg i.p. daily, Day 1): 5 g
vocalization threshold (g) to mechanical stimulation with von Frey hairs ([6]; 175 μmole/kg i.p. daily, Day 2): 6 g
vocalization threshold (g) to mechanical stimulation with von Frey hairs ([6]; 175 μmole/kg i.p. daily, Day 4): 70 g
vocalization threshold (g) to mechanical stimulation with von Frey hairs ([6]; 175 μmole/kg i.p. daily, Day 6): 90 g
effect on mechanical allodynia, in words ([6]; 30 mg/Kg (175 μmole/Kg) i.p. daily for 10 day): did not produce a significant effect up to the second day
effect on mechanical allodynia compared with NO-gabapentin, in words ([6]; gabapentin 30 mg/Kg vs NO-gabapentin 60 mg/kg i.p. daily): the effect was lower than that of NO-gabapentin

CC(=O)Oc1ccccc1C(=O)Oc1cccc(CO[N+](=O)[O-])c1 [NO-ASA, 2-acetylsalicylic acid (3-nitrooxymethyl)phenyl ester]
response % ([1]; NO-ASA 100 mg/Kg p.o.): 82%

Cl.NCC1(CC(=O)Oc2cccc(CO[N+](=O)[O-])c2)CCCCC1 [NO-gabapentin, 1-(aminomethyl)cyclohexan acetic acid 3-(nitrooxymethyl)phenyl hydrochloride ester]
response to cold stimulation, score (0-3) ([2]; 55.7 μmole/kg i.p. single dose, time 0 min): 2
response to cold stimulation, score (0-3) ([2]; 55.7 μmole/kg i.p. single dose, time 30 min): 2
response to cold stimulation, score (0-3) ([2]; 55.7 μmole/kg i.p. single dose, time 120 min): 2
response to cold stimulation, score (0-3) ([2]; 167.2 μmole/kg i.p. single dose, time 0 min): 2
response to cold stimulation, score (0-3) ([2]; 167.2 μmole/kg i.p. single dose, time 30 min): 1
response to cold stimulation, score (0-3) ([2]; 167.2 μmole/kg i.p. single dose, time 120 min): 1
response to cold stimulation, score (0-3) ([2]; 278.7 μmole/kg i.p. single dose, time 0 min): 2
response to cold stimulation, score (0-3) ([2]; 278.7 μmole/kg i.p. single dose, time 30 min): 1
response to cold stimulation, score (0-3) ([2]; 278.7 μmole/kg i.p. single dose, time 120 min): 1
response to cold stimulation, score (0-3) ([2]; 278.7 μmole/kg i.p. single dose, time 240 min): 1
duration of significant effect on cold allodynia ([2]; 60 mg/kg (167.21 μmole/Kg) i.p.): 120 min
duration of significant effect on cold allodynia ([2]; 100 mg/kg (278.7 μmole/Kg) i.p.): 240 min
effect on cold allodynia, in words ([2]; acute administration, 20, 60 or 100 mg/kg i.p.): alleviated in a dose-dependent way cold allodynia
Number "paw licking" % ([4]; 50 mg/kg i.p.): 70%
inhibition of "paw-licking" compared with starting drug, in words ([4]; NO-gabapentin 50 mg/kg vs Gabapentin 90 mg/kg i.p.): more active than the starting drug
death rate with respect to animals treated with gabapentin ([5]; diabetic animals, 100 mg/kg per os for three days): less than half
vocalization threshold (g) to mechanical stimulation with von Frey hairs ([6]; 167.2 μmole/kg i.p. daily, Day 1): 100 g
vocalization threshold (g) to mechanical stimulation with von Frey hairs ([6]; 167.2 μmole/kg i.p. daily, Day 2): 200 g
vocalization threshold (g) to mechanical stimulation with von Frey hairs ([6]; 167.2 μmole/kg i.p. daily, Day 4): 400 g
vocalization threshold (g) to mechanical stimulation with von Frey hairs ([6]; 167.2 μmole/kg i.p. daily, Day 6): 90 g
maintenance of significant effect on mechanical allodynia, in words ([6]; 60 mg/kg (167.2 μmole/Kg) i.p. daily): a significant effect was maintained up to day 6
effect on mechanical allodynia, in words ([6]; 60 mg/kg (167.2 μmole/Kg) i.p. daily for 10 day): alleviated mechanical allodynia following the first administration
